The results in this text go back to patent publication US5981521A, “Tetrahydroisoquinoline derivatives as LHRH antagonists” (Abbott Laboratories, priority 1998, dated 1999).

SMILES strings stand for the structures. Structures can show the parent of a compound that is named as a salt.

One assay has as its target T1, LHRH rat pituitary receptor (Rattus norvegicus, UniProt P30969).
T1 construct: from tissue; host or cells: rat pituitary
T1 sequence (P30969 1-327): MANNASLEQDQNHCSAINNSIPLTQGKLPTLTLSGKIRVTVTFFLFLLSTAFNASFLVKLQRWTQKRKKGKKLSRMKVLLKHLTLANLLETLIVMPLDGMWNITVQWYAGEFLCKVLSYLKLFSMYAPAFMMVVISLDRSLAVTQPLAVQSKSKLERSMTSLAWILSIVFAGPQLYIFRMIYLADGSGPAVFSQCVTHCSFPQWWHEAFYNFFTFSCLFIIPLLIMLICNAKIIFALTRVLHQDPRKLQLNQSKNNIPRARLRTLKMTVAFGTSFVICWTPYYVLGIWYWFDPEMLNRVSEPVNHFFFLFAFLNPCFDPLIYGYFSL
The assay can be described thus: LHRH rat pituitary receptor binding. The note with it: Table 1: compounds of formula (V), by n and R1. On the procedure: Representative compounds of the present invention were evaluated in vitro for potency against for LHRH rat pituitary receptor binding [pK, ]. Methods for the assay procedures are 10 described in […] al. J Med. Chem., 32: 2340-2344 (1989). Values of pK, are the negative logarithms of the equilibrium dissociation constant of the particular antagonist test compound for the receptor binding. […] Leuprolide LHRH agonist, disclosed and claimed in U.S. Pat. No. 4,005, 063, has the structure 5-oxo-[…].
Regarding `COc1cc2c(cc1OC)C(Cc1ccc(N)cc1)N(CCCC(CCCNC(=O)CCc1ccc(F)cc1)(c1ccccc1)c1ccccc1)CC2` (centres unmarked) [Example 21, 7-[N-3-(4-Fluorophenol)propionyl]amino-1-F(N-[1,2,3,4-tetrahydro-1-(4-aminobenzyl)-6,7-dimethoxyisoguinolinyl)1-4.4-diphenylheptanedihydrochloride], the Ki was 0.0724 nM.
Regarding `COc1cc2c(cc1OC)C(C)N(CCCC(CCCNC(=O)CCc1ccc(F)cc1)(c1ccccc1)c1ccccc1)CC2` (racemic) [Example 1, (R,S) 7-[N-3-(4-Fluorophenyl)propionyl]amino-1-[N-(1,2,3,4-tetrahydro-1-methyl-6,7-dimethoxyisoquinolinyl]1-4,4-diphenylheptane hydrochloride], the pKI came to 8.80.
As to `COc1cc2c(cc1OC)[C@@H](C)N(CCCC(CCCNC(=O)CCc1ccc(F)cc1)(c1ccccc1)c1ccccc1)CC2` [Example 2, (R) 7-[N-3-(4-Fluorophenyl)propionyl]-1-N-(1,2,3,4)-tetrahydro-1-methyl-6,7-dimethoxyisoguinolinyl)1-4,4-diohenylheptane hydrochloride], the pKI came out at 8.25.
For the compound `COc1cc2c(cc1OC)C(C1CC1)N(CCCC(CCCNC(=O)CCc1ccc(F)cc1)(c1ccccc1)c1ccccc1)CC2` (centres unmarked) [Example 4, 7-[N-3-(4-Fluorolphenyl)Propionyl]1-[N-(1,2,3,4-tetrahydro-1-cyclopropyl-6.7-dimethoxyisoquinolinyl)]-4,4-diphenylheptane hydrochloride], the Ki was 0.135 nM.
Take `COc1cc2c(cc1OC)C(C1CCCCC1)N(CCCC(CCCNC(=O)CCc1ccc(F)cc1)(c1ccccc1)c1ccccc1)CC2` (centres unmarked) [Example 10, 7-[N-3-(4-Fluorophenyl)propionyl]amino-1-[N-(1,2,3,4-tetrahydro-1-cyclohexyl-6,7-dimethoxyisoguinolinyl)1-4.4-diphenylheptane hydrochloride]: the affinity corresponds to a Ki of 2.88 nM. This Ki lies about 21-fold higher than the previous one.
Take `COc1cc2c(cc1OC)C(C1CCCC1)N(CCCC(CCCNC(=O)CCc1ccc(F)cc1)(c1ccccc1)c1ccccc1)CC2` (centres unmarked) [Example 8, 7-[N-3-(4-Fluorophenyl)propionyl]amino-1-[N-(1,2,3,4-tetrahydro-1-cyclopentyl-6.7-dimethoxyisoguinolinyl)]-4,4-diphenylheptane hydrochloride]: affinity was put at a Ki of 0.389 nM.
On the same count and under the same terms, as for `COc1cc2c(cc1OC)C(C1CCC(CN)CC1)N(CCCC(CCCNC(=O)CCc1ccc(F)cc1)(c1ccccc1)c1ccccc1)CC2` (centres unmarked) [Example 37, 7-[N-3-(4-Fluorophenyl)propionyl]-1-[N-(1,2,3,4-tetrahydro-1-(4-aminomethylcyclohexyl)-6,7-dimethoxyisoquinolinyl)1-4.4-diphenylheptanedihydrochloride], the figure is 3.98 nM.
Take `COc1cc2c(cc1OC)C(CCCCNC(=O)c1cccnc1)N(CCCC(CCCNC(=O)CCc1ccc(F)cc1)(c1ccccc1)c1ccccc1)CC2` (centres unmarked) [Example 35, 7-[N-3-(4-Fluorophenyl)propionyl]amino-1-[N-(1,2,3,4-tetrahydro-1-(4-N-nicotinylamino)-butyl-6,7-dimethoxyisoguinolinyll-4,4-diphenylheptane hydrochloride]: the Ki is 2.45 nM.
With `COc1cc2c(cc1OC)C(CN)N(CCCC(CCCNC(=O)CCc1ccc(F)cc1)(c1ccccc1)c1ccccc1)CC2` (centres unmarked) [Example 22, 7-[N-3-(4-Fluorophenyl)propionyl]amino-1-[N-(1,2.3,4-tetrahydro-1-aininomethyl-6,7-dimethoxyisoguinolinyl)1-4.4-diphenylheptanedihydrochloride], the pKI is given as 9.24.
In the case of `COc1cc2c(cc1OC)C([C@H]1CC[C@H](CNC(C)C)CC1)N(CCCC(CCCNC(=O)CCc1ccc(F)cc1)(c1ccccc1)c1ccccc1)CC2` (some centres unmarked) [Example 38, 7-[N-3-(4-Fluorophenyl)propionyl]-1-[N-(1,2,3,4-tetrahydro-1-(4-N-(isopropylaminomethyl)cyclohexyl-6,7-dimethoxyisoquinolinyl)1-4.4-diphenylheptanedihydrochloride], the Ki is 1.58 nM.
`COc1cc2c(cc1OC)C(CCCCNCC(C)C)N(CCCC(CCCNC(=O)CCc1ccc(F)cc1)(c1ccccc1)c1ccccc1)CC2` (centres unmarked) [Example 29, 7-[N-3-(4-Fluorophenyl)propionyl]-1-[N-(1,2,3,4-tetrahydro-1-[4-(N-isobutylamino)butyll-6,7-dimethoxyisoguinolinyl)1-4.4-diphenylheptanedihydrochloride] yielded a pKI of 8.60.
`COc1cc2c(cc1OC)C(Cc1ccccc1)N(CCCC(CCCNC(=O)CCc1ccc(F)cc1)(c1ccccc1)c1ccccc1)CC2` (centres unmarked) [Example 17, 7-[N-3-(4-Fluorophenyl)propionyl]amino-1-[N-(1,2,3,4-tetrahydro-1-benzyl-6,7-dimethoxyisoguinolinyl)1-4.4-diphenylheptane hydrochloride] had a pKI of 8.56.
Take `COc1cc2c(cc1OC)C(CC#N)N(CCCC(CCCNC(=O)CCc1ccc(F)cc1)(c1ccccc1)c1ccccc1)CC2` (centres unmarked) [Example 11, 7-[N-3-(4-Fluorophenyl)propionyl]amino-1-[N-(1,2,3,4-tetrahydro-1-cyanomethyl-6,7-dimethoxyisoguinolinyl)1-4.4-diphenylheptane hydrochloride]: the pKI is listed as 8.71.
`COc1cc2c(cc1OC)C(CCCCNC1CCC1)N(CCCC(CCCNC(=O)CCc1ccc(F)cc1)(c1ccccc1)c1ccccc1)CC2` (centres unmarked) [Example 28, 7-[N-3-(4-Fluorophenyl)propionyl]-1-[N-(1,2,3,4-tetrahydro-1-(4-N-(cyclobutylamino)butyl)-6,7-dimethoxyisoquinolinyl)1-4.4-diphenylheptanedihydrochloride]: the pKI was found to be 9.60.
In turn, `COc1cc2c(cc1OC)C(CCCCNCC1CC1)N(CCCC(CCCNC(=O)CCc1ccc(F)cc1)(c1ccccc1)c1ccccc1)CC2` (centres unmarked) [Example 27] showed a pKI of 10.0.

Still in this assay, the particulars now being: Table 2: compounds of formula (VI), by isoquinolinyl moiety R.
With `COc1cc2c(cc1OC)C(C)N(CCCC(CCCNC(=O)CCc1ccc(F)cc1)(c1ccccc1)c1ccccc1)CCC2` (centres unmarked) [Example 69, 7-[N-3-(4-Fluorophenyl)propionyl]-1-[N-(2,3,4,5-tetrahydro-1-methyl-7.8-dimethoxy-I H-2-benzazepinyl)1-4.4-diphenylheptane hydrochloride], the Ki is 12.6 nM.
Still for that read-out and setting: as for `CC(=O)Oc1cc2c(cc1OC(C)=O)C(C)N(CCCC(CCCNC(=O)CCc1ccc(F)cc1)(c1ccccc1)c1ccccc1)CC2` (centres unmarked) [Example 58, 7-[N-3-(4-Fluorophenyl)propionyl]-1-[N-(1,2,3,4-tetrahydro-1-methYI-6,7-diacetoxyisoquinolinyl)]-4,4-dilhenylheptane], the figure is 12.3 nM; as for `CC1c2cc(F)ccc2CCN1CCCC(CCCNC(=O)CCc1ccc(F)cc1)(c1ccccc1)c1ccccc1` (stereo not drawn) [Example 53, 7-[N-3-(4-Fluorophenyy)propionyl]-1-[N-(1,2,3,4-tetrahydro-1-methyl-7-fluoro-isoquinolinyl)l-4,4-diphenylheptane hydrochloride], 14.5 nM; as for `CC1c2ccccc2CCN1CCCC(CCCNC(=O)CCc1ccc(F)cc1)(c1ccccc1)c1ccccc1` (centres unmarked) [Example 47, 7-[N-3-(4-Fluorophenyl)propionyl]-1-[N-(1,2,3,4-tetrahydro-1-methylisoquinolinyl)1-4.4-diphenylheptane hydrochloride], 14.5 nM.
Compound `COc1cc2c(cc1F)CCN(CCCC(CCCNC(=O)CCc1ccc(F)cc1)(c1ccccc1)c1ccccc1)C2C` (centres unmarked) [Example 60, 7-[N-3-(4-Fluorophenyl)propionyl]-1-[N-(1,2,3,4-tetrahydro-1-methyl-6-fluoro-7-methoxyisoguinofinyl)1-4.4-diphenylheptane hydrochloride] had a Ki of 1.7 nM.
The same measure, in the same setting: as for `CC1c2cc(O)c(O)cc2CCN1CCCC(CCCNC(=O)CCc1ccc(F)cc1)(c1ccccc1)c1ccccc1` (centres unmarked) [Example 46, 7-[N-3-(4-Fluorophenyl)propionyl]-1-UN-(1,2,3,4-tetrahydro-1-methyl-6,7-dihydroxyisoguinolinyl)1-4.4-diphenylheptane hydrochloride], the figure is 15.5 nM.
As to `COc1ccc2c(c1)C(C)N(CCCC(CCCNC(=O)CCc1ccc(F)cc1)(c1ccccc1)c1ccccc1)CC2` (centres unmarked) [Example 51, 7-[N-3-(4-Fluorophenylpropionyl]-1-FA-f 1,2,3,4-tetrahydro-1-methyl-7-methoxy-isoguinolinyl)1-4.4-diphen%-lheptanehydrochloride], the Ki is 1.05 nM.
On the same count and under the same terms, as for `COc1cc2c(cc1Br)C(C)N(CCCC(CCCNC(=O)CCc1ccc(F)cc1)(c1ccccc1)c1ccccc1)CC2` (centres unmarked) [Example 61, 7-[N-3-(4-Fluorophenyl)propionyl]-1-[N-(1,2,3,4-tetrahydro-1-methyl-6-methoxy-7-bromoisoguinolinyl)1-4.4-diphenylheptane hydrochloride], the figure is 3.72 nM.

The assay is the same for the next values; noted with them: Table 3: compounds of formula (VII), by substituent R'.
Turning to `COc1cc2c(cc1OC)C(C)N(CCCC(CCCNC(=O)CCc1ccc(Cl)c(Cl)c1)(c1ccccc1)c1ccccc1)CC2` (centres unmarked) [Example 73], affinity was put at a Ki of 2.19 nM. In other words, the single-digit nanomolar range.
Still for that read-out and setting: as for `COc1cc2c(cc1OC)C(C)N(CCCC(CCCNC(=O)CCc1ccccc1)(c1ccccc1)c1ccccc1)CC2` (centres unmarked) [Example 72], the figure is 3.16 nM.
Same read-out and setting: as for `COc1cc2c(cc1OC)C(C)N(CCCC(CCCNC(=O)CCc1ccc(F)c(Cl)c1)(c1ccccc1)c1ccccc1)CC2` (centres unmarked) [Example 76], the figure is 3.98 nM.

By Ki is commonly meant a measure of affinity in units of concentration, obtained from inhibition or displacement.
